Assay results: patent US20140295512A1, “Ketol-Acid Reductoisomerases With Improved Performance Properties” (CALIFORNIA INSTITUTE OF TECHNOLOGY, priority 2011, published 2014)
“And” between values parts separate entries of the source, which are not always exact repeats. Equal entries are not always repeated.

What was measured:
Ec_ilvC^P2D1-A1 = test: NKR assay in microtiter plates to measure inhibition by DHIV; type: biochemical, E. coli; conditions: 200 μM NADH, varied (S)-2-acetolactate, pH 7; read-out: K of Ec_ilvC^P2D1-A1 for DHIV (inhibition constant)
Description: NKR activity was assayed kinetically by monitoring the decrease in NADH concentration by measuring the absorbance at 340 nm. A reaction buffer was prepared containing 250 mM potassium phosphate pH 7, 1 mM DTT, 200 μM NADH, 2.5 mM (S)-2-acetolactate, and 10 mM MgCl2. Ten μL purified enzyme were placed into a microtiter plate. The reaction was initiated by addition of 90 μL of the reaction buffer. The kinetics with respect to substrate conversion in presence of the inhibitor were determined by varying the substrate concentration (5.1, 2.55, 1.275, 0.638, 0.319, 0.159, and 0.0799 mM), while keeping the cofactor concentration constant at 200 μM. The inhibition constant was measured by repeating these measurements with different amounts of inhibitor (0, 0.07, 0.13, 0.26, 0.51, and 1.07 mM, final concentrations).

E. coli KARI = E. coli KARI (Escherichia coli, UniProt P05793); test: KARI assay in 100-μL scale to measure IC50 in presence of R-DHIV; type: biochemical; conditions: for Ki: calculated via Cheng-Prusoff equation
Sequence of E. coli KARI (P05793 whole entry): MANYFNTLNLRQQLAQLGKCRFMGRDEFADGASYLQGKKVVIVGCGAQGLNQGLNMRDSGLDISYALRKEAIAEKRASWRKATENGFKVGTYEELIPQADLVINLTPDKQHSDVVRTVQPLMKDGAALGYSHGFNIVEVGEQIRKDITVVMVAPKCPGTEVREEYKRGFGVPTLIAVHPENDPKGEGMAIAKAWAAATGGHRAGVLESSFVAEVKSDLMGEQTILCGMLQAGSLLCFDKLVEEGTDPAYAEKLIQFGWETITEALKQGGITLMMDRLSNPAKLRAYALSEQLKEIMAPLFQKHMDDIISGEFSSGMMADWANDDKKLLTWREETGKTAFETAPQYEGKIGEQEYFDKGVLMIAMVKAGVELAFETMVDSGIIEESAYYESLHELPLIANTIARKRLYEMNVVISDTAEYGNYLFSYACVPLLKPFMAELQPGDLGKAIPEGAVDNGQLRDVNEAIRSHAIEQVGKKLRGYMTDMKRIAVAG
Description: (§1) Assay buffers were prepared containing 250 mM potassium phosphate pH 7.0, 1 mM DTT, 10 mM MgCl2, 2.5 mM acetolactate, 200 μM NADPH, and increasing concentrations of R-DHIV (0-85.5 mM (final concentrations). Ten μL purified enzyme were placed into a flat-bottom assay plate (Evergreen Scientific). The reactions were initiated by addition of 90 μL assay buffer. The change in absorbance at 340 nm was monitored over 1 min in a plate reader (TECAN).

L. lactis KARI = L. lactis KARI (Lactococcus lactis subsp. lactis, UniProt Q02138); test: as above; type: biochemical
Sequence of L. lactis KARI (Q02138 whole entry): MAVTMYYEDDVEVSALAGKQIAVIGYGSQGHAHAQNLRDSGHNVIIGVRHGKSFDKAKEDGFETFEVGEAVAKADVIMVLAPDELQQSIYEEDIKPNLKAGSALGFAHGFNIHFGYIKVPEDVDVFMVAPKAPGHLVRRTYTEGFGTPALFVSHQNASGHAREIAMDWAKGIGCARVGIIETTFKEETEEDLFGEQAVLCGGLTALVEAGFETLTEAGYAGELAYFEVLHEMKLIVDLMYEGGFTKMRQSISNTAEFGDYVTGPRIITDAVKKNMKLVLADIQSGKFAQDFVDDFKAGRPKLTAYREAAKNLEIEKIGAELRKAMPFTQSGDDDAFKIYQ
Description: as §1

S. exigua KARI = S. exigua KARI (Slackia exigua, UniProt D0WGK0); test: as above; type: biochemical
Sequence of S. exigua KARI (D0WGK0 whole entry): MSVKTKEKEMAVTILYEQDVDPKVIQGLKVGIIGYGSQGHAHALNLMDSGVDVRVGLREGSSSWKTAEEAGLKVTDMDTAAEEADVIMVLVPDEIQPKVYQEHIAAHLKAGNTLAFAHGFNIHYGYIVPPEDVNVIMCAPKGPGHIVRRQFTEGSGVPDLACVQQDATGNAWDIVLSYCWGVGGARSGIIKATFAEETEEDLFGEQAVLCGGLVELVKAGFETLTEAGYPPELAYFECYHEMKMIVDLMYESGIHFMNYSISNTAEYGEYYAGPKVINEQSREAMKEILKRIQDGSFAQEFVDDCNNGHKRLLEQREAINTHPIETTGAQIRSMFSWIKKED
Description: as §1

[1] = 2.5 mM acetolactate, 200 μM NADPH, pH 7.0
[2] = calculated via Cheng-Prusoff equation

| Structure (SMILES) | Ki (Ec_ilvC^P2D1-A1) [µM] | Ki (E. coli KARI) [µM] | IC50 (E. coli KARI; [1]) | IC50 (L. lactis KARI; [1]) [µM] | Ki (L. lactis KARI; [2]) [µM] | IC50 on S. exigua KARI, times higher than IC50 of the E. coli KARI (S. exigua KARI) [fold] | IC50 on S. exigua KARI, times higher than IC50 of the L. lactis KARI (S. exigua KARI) [fold] | Ki on S. exigua KARI, times higher than Ki calculated for E. coli KARI (S. exigua KARI) [fold] | IC50 (S. exigua KARI; [1]) | Ki (S. exigua KARI; [2]) [µM] |
| --- | --- | --- | --- | --- | --- | --- | --- | --- | --- | --- |
| CC(C)(O)C(O)C(=O)O (centres unmarked) [DHIV, 2,3-dihydroxyisovalerate] | 45 | 100 |  |  |  |  |  |  |  |  |
| CC(C)(O)[C@@H](O)C(=O)O [R-DHIV] |  | 100 | 1000 µM and 1100 µM | 2500 ± 700 | 1700 | 27 | 10 | 17 | 26700 µM and 27000 µM | 1700 |
